According to paper PMC12378621, “Benzo-ring modification on Malaria Box hit MMV008138: effects on antimalarial potency and microsomal stability” (RSC Medicinal Chemistry, 2025):
Values joined by “and” are separate entries in the source; they are usually repeats but may differ in a detail not shown here. Identical values can stand only once. Like-named read-outs stand apart in the source and are kept apart here.

How the values were obtained:
P. falciparum IspD = system: P. falciparum IspD; design: method as in PMID 26783558; details: cited from earlier work
in vitro = details: male, mouse, microsomes
Experimental: Metabolic stability of 1 was studied in pooled male mouse liver microsomes (final concentration 0.5 mg/mL, 5 mM MgCl 2, 100 mM phosphate buffer). The final concentration of test […]
The mixture was pre-warmed 37°C for 5 min before addition of 50 μL of 10 mM NADPH solution at the final concentration of 1 mM and carried out at 37°C. 50 μL of ultra-pure H2O was used instead of NADPH solution in the […]
negative control. […] Drug […]
concentrations were determined using triple quad LC-MS (Table S5).
(§1) (1 picture or pasted object on this page, not shown here)

[1] = system: Plasmodium berghei ANKA expressing luciferase (PbGFP-Luccon); test: In vivo efficacy in P. berghei-infected mice (luminescence on Day 7)
Experimental: 2. In vivo efficacy studies of 1 (NYU) in P. berghei-infected mice (po and iv) Efficacy of 1 in P. berghei-infected mice was assessed at the Anti-Infectives Core Facility, Department of Microbiology, Grossman School of Medicine, New York University.
A. Oral Administration Protocol
Three groups of five female Swiss Webster mice weighing 25 to 30 g were used for vehicle […]
berghei ANKA expressing luciferase (PbGFP-Luccon) obtained from a donor infected mouse.10 […]
2 to 6 and imaged on day 7.
Figure S1. Dosing and imaging timeline of P. berghei-infected mice. […]
Day 7 as described in the text.
The vehicle for all groups was 0.5% (hydroxypropyl)methyl cellulose, 0.5% Tween-80.
For the surviving mice, o n day 7 after infection, mice were anesthetized by inhalation of isofluorane and injected via i.p. with 150 mg/kg of luciferase substrate dissolved in PBS (D-Luciferin Potassium Salt , Gold Biotechnology ).
Mice were imaged 5 to 10 min after inj ection of luciferin using an IVIS imager (Lumina II In Vivo Imaging System; Perkin -Elmer). The data acquisition and analysis were performed with LivingImage (Xenogen). Accumulated light intensity was measured in each mouse to determine the baseline infection levels before treatment .
as §1
B. IV Administration Protocol
One group of four female Swiss Webster mice weighing 25 to 30 g were used for vehicle control, and groups of five mice were used for 1 treatment (IV, 2 x 30 mg/kg/d) and the positive […]
On Day 0, mice were infected via intraperitoneal (i.p.) […]
from a donor infected mouse. 10 As shown below in Figure S2 (and legend), mice were treated […]
Figure S2. Dosing and imaging timeline of P. berghei-infected mice. Vehicle and 1 (30 mpk) treatments were administered IV twice -daily on Days 2-6. […]
administered i .p. once-daily. Mice were imaged on Day 7, as described in the text.
The vehicle for this study was 30%PEG, 40% Captisol (30%w/v solution).
Table S2. Luminescence Data after background subtraction for IV dosing of Vehicle, 1, and IP […]
Table S9. Concentration of 20c vs time in mice. […]
Figure S6. Dosing and imaging timeline of P. berghei-infected mice. […]

[2] = system: P. falciparum (Dd2 strain); test: ABS P. falciparum growth inhibition, SYBR Green I assay, 72 h endpoint; format: cell-based, Plasmodium falciparum; details: Plasmodium falciparum, DD2; control in growth inhibition / IPP rescue assays; read-out: EC50 of MMV008138 used as control
Experimental: Parasites were maintained in O-positive human erythrocytes (Grifols, Memphis, TN, USA) at 5% hematocrit in RPMI 1640 medium supplemented with 5 g L^−1 Albumax I (Gibco Life Technologies), 2 g L^−1 glucose (Sigma-Aldrich), 2.3 g L^−1 sodium bicarbonate (Sigma-Aldrich), 370 μM hypoxanthine (Sigma-Aldrich), 25 mM HEPES, and 20 mg L^−1 gentamicin (Gibco Life Technologies). The parasites were kept at 37 °C under reduced-oxygen conditions (5% CO2, 5% O2, and 90% N2).
[…]. MMV008138 (1) was used as control. The percentage of growth was normalized to that of untreated control parasites in the presence of 0.1% DMSO. Background determinations were made using uninfected erythrocytes. Two or more independent experiments in duplicate were performed. The EC50 values were calculated with GraphPad Prism 9 (GraphPad Software Ltd.) using nonlinear regression curve fitting with variable slope (four parameters) and represent the average and their standard error of the mean (S.E.M.). To assess whether 20a–e specifically targeted the apicoplast, the recovery of growth in the presence of inhibitor and isopentenyl diphosphate (IPP) was performed as described previously.[8] Briefly, parasites were grown in the presence or absence of 200 μM IPP along with a serial dilution (10 μM to 0.01 μM) or single concentration (10 or 20 μM) of drug. […] All conditions were set in 96-well half area plates using highly synchronous ring-stage parasite cultures (100 μL per well at 1% hematocrit and 1% parasitemia) and incubated for 72 h under normal culture conditions. Parasite growth was measured by the SYBR green I assay.

in vivo = details: mouse
Experimental: 3. Pharmacokinetics of 1 in mice
Pharmacokinetic analysis of 1 in mice was performed by Pharmaron (Beijing, China). Three mice each (23 ± 1 g) were used for oral (40 mg/kg, gavage, conscious) and for IV (10 mg/kg, lateral tail vein with anesthesia) administration. The vehicle for both routes wa s 20% DMSO, 60% PEG400 and 20% SBE-β-CD (30% w/v) in water. Stock concentrations were 4 mg/mL (both oral and IV respectively), and mice were dosed at 10.0 and 2.5 mL/kg (oral and IV respectively).
Quantitation was performed by triple-quad LC-MS.

[3] = system: P. falciparum (Dd2 strain); details: SYBR Green I, 72 h endpoint; previously reported; read-out: Dd2 strain P. falciparum growth inhibition EC50; cited from earlier work
[4] = system: P. falciparum (Dd2 strain); design: method as in PMID 25754494; details: drug at 2.5 μM; previously reported; cited from earlier work
P. vivax IspD = system: P. vivax IspD; design: method as in PMID 26783558; details: cited from earlier work
[5] = Table S2, Days 2-6, imaged Day 7, Cmpd 1 30 mg/kg 2 x daily IV, CQ 20 mg/kg 1 x daily i.p.
[6] = iv, 10 mg/kg, plasma concentration
[7] = po, 40 mg/kg, plasma concentration

O=C(O)[C@@H]1Cc2c([nH]c3ccccc23)[C@@H](c2ccc(Cl)cc2Cl)N1 [Compound 1, reference compound]
IC50 (P. falciparum IspD): 47 nM | half-life at 1 µM (in vitro): ~0.167 h | % remaining at 60 min (in vitro; 1 h, 1 µM): 103.9% | reduction in parasitemia ([1]; P. berghei mouse model, IV dosing): no reduction in parasitemia | reduction in parasitemia / efficacy ([1]; P. berghei mouse model, oral dosing (20c 5 × 40 mg per kg per day)): no reduction in parasitemia | Live/Dead and luminescence, individual mice ([1]; Table S1, oral 1 x daily Days 2-6, imaged Day 7, Cmpd 1 45 mg/kg, CQ 20 mg/kg): Dead by Day 6 and Dead by Day 7 and 1.33E+06 | Luminescence after background subtraction AVG [1, 5]: 1.39E+06 | Luminescence after background subtraction, individual mice [1, 5]: 9.49E+05 and 1.50E+06 and 1.72E+06 and 2.00E+06 and 7.68E+05 | treated mice dead by Day 7 (of 5) ([1]; oral 45 mg/kg/d Days 2-6): 4 | EC50 [2]: 170 ± 10 nM | AUC(0-inf) (in vivo; iv, 10 mg/kg): 38.4 ± 3.8 µM·h | AUC(0-t) (in vivo; iv, 10 mg/kg): 36.1 ± 3.6 µM·h | C0 (in vivo; iv, 10 mg/kg): 86 ± 6.6 µM | Vd (in vivo; iv, 10 mg/kg): 3.5 ± 0.43 L/kg | clearance (in vivo; iv, 10 mg/kg): 12.1 ± 1.3 mL/min/kg | tlast (in vivo; iv, 10 mg/kg): 24 h | concentration at 24 h (in vivo; iv, 10 mg/kg, Cmin): 0.164 ± 0.017 µM | concentration at 0.083 h (in vivo; [6]): 58.6 ± 5.5 µM | concentration at 0.25 h (in vivo; [6]): 27.1 ± 3.7 µM | concentration at 0.5 h (in vivo; [6]): 14.8 ± 1.9 µM | concentration at 1 h (in vivo; [6]): 4.8 ± 1.7 µM | concentration at 2 h (in vivo; [6]): 1.3 ± 0.4 µM | concentration at 4 h (in vivo; [6]): 0.66 ± 0.04 µM | concentration at 8 h (in vivo; [6]): 0.51 ± 0.03 µM | concentration at 24 h (in vivo; [6]): 0.16 ± 0.02 µM | half-life (in vivo; iv, 10 mg/kg, t1/2): 9.9 ± 4 h | AUC0-inf (in vivo; po, 40 mg/kg): 88 µM·h | AUC(0-inf) (in vivo; po, 40 mg/kg): 88 ± 15 µM·h | AUC(0-t) (in vivo; po, 40 mg/kg): 79 ± 8.9 µM·h | Cmax (in vivo; po, 40 mg/kg): 46.1 ± 7.3 µM | Tmax (in vivo; po, 40 mg/kg): 0.25 h | tlast (in vivo; po, 40 mg/kg): 24 h | bioavailability (in vivo; po, 40 mg/kg, % F): 57% | bioavailability (in vivo; po, 40 mg/kg, %F): 57 ± 10% | concentration at 24 h (in vivo; po, 40 mg/kg, Cmin): 0.65 ± 0.35 µM | concentration at 0.25 h (in vivo; [7]): 46.1 ± 8 µM | concentration at 0.5 h (in vivo; [7]): 28.2 ± 4.1 µM | concentration at 1 h (in vivo; [7]): 12.7 ± 2.7 µM | concentration at 2 h (in vivo; [7]): 5.4 ± 0.31 µM | concentration at 4 h (in vivo; [7]): 3.2 ± 0.25 µM | concentration at 8 h (in vivo; [7]): 2.4 ± 0.45 µM | concentration at 24 h (in vivo; [7]): 0.64 ± 0.35 µM | half-life (in vivo; po, 40 mg/kg, t 1/2): 8.5 h | half-life (in vivo; po, 40 mg/kg, t1/2): 8.5 ± 0.24 h | EC50 [3]: 250 ± 70 nM | % recovery (200 μM IPP) [4]: 100%@2.5 μM ^c | IC50 (P. vivax IspD): 310 nM
